In US5026832A, “9-dihydro-9-O-alkyldesmycosin derivatives” (Toyo Jozo Co., Ltd., priority 1988, dated 1991):
Converted amounts (≈) assume the structure as drawn.

Key:
[1] = tested on: Staphylococcus aureus FDA 209P JC-1; assay: Antimicrobial activity (minimum inhibitory concentration); type: cell-based; details: FDA209P; Staphylococcus aureus FDA 209P JC-1, about 10^6 /ml
Method: (§1) Minimum inhibitory concentrations (MIC, μg/ml) of various compounds of formula (I) against various microorganisms (about 10^6 /ml) were measured.

[2] = tested on: Staphylococcus aureus MS 353 C36; assay: as above; type: cell-based; details: MS353C36; Staphylococcus aureus MS 353 C36, about 10^6 /ml
Method: as §1

[3] = tested on: Staphylococcus aureus MS 353; assay: as above; type: cell-based; details: MS353; Staphylococcus aureus MS 353, about 10^6 /ml
Method: as §1

[4] = tested on: Staphylococcus aureus Smith; assay: as above; type: cell-based; details: about 10^6 /ml
Method: as §1

[5] = tested on: Staphylococcus epidermidis sp-al-1; assay: as above; type: cell-based; details: SPAL1; Staphylococcus epidermidis sp-al-1, about 10^6 /ml
Method: as §1

[6] = tested on: Staphylococcus pyogenes 1022; assay: as above; type: cell-based; details: Staphylococcus pyogenes 1022, about 10^6 /ml
Method: as §1

[7] = tested on: Staphylococcus pyogenes N.Y.5; assay: as above; type: cell-based; details: Staphylococcus pyogenes N.Y.5, about 10^6 /ml
Method: as §1

[8] = tested on: Staphylococcus pyogenes S-23; assay: as above; type: cell-based; details: Staphylococcus aureus, S23; Staphylococcus pyogenes S-23, about 10^6 /ml
Method: as §1

[9] = tested on: Staphylococcus pyogenes S-23; assay: Infectious disease curing effect by oral administration in infected mice; type: in vivo, ICR male mice; details: Staphylococcus aureus, S23, 120 h; oral, 1 hour after abdominal inoculation of Staphylococcus pyogenes S-23, inspected for 5 days, Van der Waerden method; read-out: ED50
Method: A pre-incubated test microorganism, Staphylococcus pyogenes S-23, was suspended in a 5% mucin solution and inoculated into the ICR male mice (8 mice per group) abdomen in an amount of 2×10^2. After 1 hour, Compounds (I) of the present invention dissolved or suspended in a phosphate buffer were orally administered to the mice. The mice were inspected for 5 days to determine ED50 (mg/kg) by the Van der Waerden method.

Question: `CCC1OC(=O)CC(O)C(C)C(OC2OC(C)C(O)C(N(C)C)C2O)C(CC=O)CC(C)C(OCC2CCCCC2)C=CC(C)=CC1COC1OC(C)C(O)C(OC)C1OC` (stereo not shown) [Compound 16, 9-dihydro-9-O-cyclohexylmethyldesmycosin] was tested. Which MIC [1] did it give?
Answer: 0.78 µg/mL (≈ 0.896 µM)

Question: What about the MIC [2] of the same compound?
Answer: 0.78 µg/mL (≈ 0.896 µM)

Question: And the MIC [3]?
Answer: 0.39 µg/mL (≈ 0.448 µM)

Question: And the MIC [4]?
Answer: 1.56 µg/mL (≈ 1.79 µM)

Question: What about the MIC [5] of the same compound?
Answer: 1.56 µg/mL (≈ 1.79 µM)

Question: What about the MIC [6] of the same compound?
Answer: 50 µg/mL (≈ 57.5 µM)

Question: What about the MIC [7] of the same compound?
Answer: 0.39 µg/mL (≈ 0.448 µM)

Question: What about the MIC [8] of the same compound?
Answer: 0.39 µg/mL (≈ 0.448 µM)

Question: Which MIC [1] does the source give for `CCC1OC(=O)CC(O)C(C)C(OC2OC(C)C(O)C(N(C)C)C2O)C(CC=O)CC(C)C(OCC2CC2)C=CC(C)=CC1COC1OC(C)C(O)C(OC)C1OC` (stereo not shown) [Compound 14, 9-dihydro-9-O-cyclopropylmethyldesmycosin] here?
Answer: 0.2 µg/mL (≈ 0.242 µM)

Question: What about the MIC [2] of the same compound?
Answer: 0.2 µg/mL (≈ 0.242 µM)

Question: What about the MIC [3] of the same compound?
Answer: 0.2 µg/mL (≈ 0.242 µM)

Question: And the MIC [4]?
Answer: 0.39 µg/mL (≈ 0.471 µM)

Question: What about the MIC [5] of the same compound?
Answer: 0.2 µg/mL (≈ 0.242 µM)

Question: What about the MIC [6] of the same compound?
Answer: > 100 µg/mL

Question: And the MIC [7]?
Answer: 0.1 µg/mL (≈ 0.121 µM)

Question: What about the MIC [8] of the same compound?
Answer: ≤ 0.05 µg/mL

Question: With `CCC1OC(=O)CC(OC(C)=O)C(C)C(OC2OC(C)C(O)C(N(C)C)C2O)C(CC=O)CC(C)C(OC)C=CC(C)=CC1COC1OC(C)C(O)C(OC)C1OC` (stereo not shown) [Compound 12, 9-dihydro-9-O-methyl-3-O-acetyldesmycosin] as the compound, how does the MIC [1] read?
Answer: 0.2 µg/mL (≈ 0.241 µM)

Question: And the MIC [2]?
Answer: 0.2 µg/mL (≈ 0.241 µM)

Question: And the MIC [3]?
Answer: 0.2 µg/mL (≈ 0.241 µM)

Question: What about the MIC [4] of the same compound?
Answer: 0.39 µg/mL (≈ 0.47 µM)

Question: What about the MIC [5] of the same compound?
Answer: 0.39 µg/mL (≈ 0.47 µM)

Question: What about the MIC [6] of the same compound?
Answer: > 100 µg/mL

Question: What about the MIC [7] of the same compound?
Answer: 0.1 µg/mL (≈ 0.12 µM)

Question: And the MIC [8]?
Answer: 0.1 µg/mL (≈ 0.12 µM)

Question: With `CCCOC1C=CC(C)=CC(COC2OC(C)C(O)C(OC)C2OC)C(CC)OC(=O)CC(OC(=O)CC)C(C)C(OC2OC(C)C(O)C(N(C)C)C2O)C(CC=O)CC1C` (stereo not shown) [Compound 11, 9-dihydro-9-O-propyl-3-O-propionyldesmycosin] as the compound, how does the MIC [1] read?
Answer: 0.2 µg/mL (≈ 0.229 µM)

Question: And the MIC [2]?
Answer: 0.39 µg/mL (≈ 0.447 µM)

Question: What about the MIC [3] of the same compound?
Answer: 0.2 µg/mL (≈ 0.229 µM)

Question: And the MIC [4]?
Answer: 0.78 µg/mL (≈ 0.894 µM)

Question: And the MIC [5]?
Answer: 0.39 µg/mL (≈ 0.447 µM)

Question: What about the MIC [6] of the same compound?
Answer: 100 µg/mL (≈ 115 µM)

Question: What about the MIC [7] of the same compound?
Answer: 0.1 µg/mL (≈ 0.115 µM)

Question: And the MIC [8]?
Answer: 0.2 µg/mL (≈ 0.229 µM)

Question: Which results are given for `CCC1OC(=O)CC(O)C(C)C(OC2OC(C)CC(N(C)C)C2O)C(CC=O)CC(C)C(OC)C=CC(C)=CC1COC1OC(C)C(O)C(OC)C1OC` (stereo not shown) [Compound 6, 9-dihydro-9-O-methyl-4'-deoxydesmycosin]?
Answer: MIC [1]: 0.1 µg/mL (≈ 0.13 µM); MIC [2]: 0.2 µg/mL (≈ 0.259 µM); MIC [3]: 0.2 µg/mL (≈ 0.259 µM); MIC [4]: 0.39 µg/mL (≈ 0.505 µM); MIC [5]: 0.1 µg/mL (≈ 0.13 µM); MIC [7]: ≤ 0.05 µg/mL; MIC [8]: ≤ 0.05 µg/mL; ED50 [9]: 64.8 mg/kg

Question: What does the source list for `CCCCOC1C=CC(C)=CC(COC2OC(C)C(O)C(OC)C2OC)C(CC)OC(=O)CC(O)C(C)C(OC2OC(C)C(O)C(N(C)C)C2O)C(CC=O)CC1C` (stereo not shown) [Compound 4, 9-dihydro-9-O-butyldesmycosin]?
Answer: MIC [1]: 0.39 µg/mL (≈ 0.47 µM); MIC [2]: 0.39 µg/mL (≈ 0.47 µM); MIC [3]: 0.39 µg/mL (≈ 0.47 µM); MIC [4]: 0.78 µg/mL (≈ 0.94 µM); MIC [5]: 0.39 µg/mL (≈ 0.47 µM); MIC [6]: > 100 µg/mL; MIC [7]: 0.1 µg/mL (≈ 0.12 µM); MIC [8]: 0.2 µg/mL (≈ 0.241 µM)

Question: Which results are given for `CCC1OC(=O)CC(O)C(C)C(OC2OC(C)C(O)C(N(C)C)C2O)C(CC=O)CC(C)C(=O)C=CC(C)=CC1COC1OC(C)C(O)C(OC)C1OC` (stereo not shown) [Desmycosin, 4'-demycarosyltylosin]?
Answer: MIC [1]: 0.2 µg/mL (≈ 0.259 µM); MIC [2]: 0.2 µg/mL (≈ 0.259 µM); MIC [3]: 0.2 µg/mL (≈ 0.259 µM); MIC [4]: 0.39 µg/mL (≈ 0.505 µM); MIC [5]: 0.2 µg/mL (≈ 0.259 µM); MIC [6]: > 100 µg/mL; MIC [7]: ≤ 0.05 µg/mL; MIC [8]: ≤ 0.05 µg/mL

Question: Which results are given for `CCOC1C=CC(C)=CC(COC2OC(C)C(O)C(OC)C2OC)C(CC)OC(=O)CC(OC(=O)CC)C(C)C(OC2OC(C)C(O)C(N(C)C)C2O)C(CC=O)CC1C` (stereo not shown) [Compound 10, 9-dihydro-9-O-ethyl-3-O-propionyldesmycosin]?
Answer: MIC [1]: 0.2 µg/mL (≈ 0.233 µM); MIC [2]: 0.39 µg/mL (≈ 0.455 µM); MIC [3]: 0.39 µg/mL (≈ 0.455 µM); MIC [4]: 0.78 µg/mL (≈ 0.909 µM); MIC [5]: 0.78 µg/mL (≈ 0.909 µM); MIC [6]: > 100 µg/mL; MIC [7]: 0.1 µg/mL (≈ 0.117 µM); MIC [8]: 0.39 µg/mL (≈ 0.455 µM)

Question: Which results are given for `CCC1OC(=O)CC(O)C(C)C(OC2OC(C)C(O)C(N(C)C)C2O)C(CC=O)CC(C)C(OCC(C)C)C=CC(C)=CC1COC1OC(C)C(O)C(OC)C1OC` (stereo not shown) [Compound 17, 9-dihydro-9-O-isobutyldesmycosin]?
Answer: MIC [1]: 0.39 µg/mL (≈ 0.47 µM); MIC [2]: 0.39 µg/mL (≈ 0.47 µM); MIC [3]: 0.39 µg/mL (≈ 0.47 µM); MIC [4]: 0.78 µg/mL (≈ 0.94 µM); MIC [5]: 0.39 µg/mL (≈ 0.47 µM); MIC [6]: > 100 µg/mL; MIC [7]: 0.1 µg/mL (≈ 0.12 µM); MIC [8]: 0.2 µg/mL (≈ 0.241 µM)

Question: `CCCOC1C=CC(C)=CC(COC2OC(C)C(O)C(OC)C2OC)C(CC)OC(=O)CC(O)C(C)C(OC2OC(C)C(O)C(N(C)C)C2O)C(CC=O)CC1C` (stereo not shown) [Compound 3, 9-dihydro-9-O-propyldesmycosin] was tested. Which MIC [1] did it give?
Answer: 0.1 µg/mL (≈ 0.123 µM)

Question: What about the MIC [2] of the same compound?
Answer: 0.2 µg/mL (≈ 0.245 µM)

Question: What about the MIC [3] of the same compound?
Answer: 0.2 µg/mL (≈ 0.245 µM)

Question: What about the MIC [4] of the same compound?
Answer: 0.39 µg/mL (≈ 0.478 µM)

Question: What about the MIC [5] of the same compound?
Answer: 0.2 µg/mL (≈ 0.245 µM)

Question: And the MIC [6]?
Answer: > 100 µg/mL

Question: What about the MIC [7] of the same compound?
Answer: ≤ 0.05 µg/mL

Question: What about the MIC [8] of the same compound?
Answer: 0.1 µg/mL (≈ 0.123 µM)

Question: How did the MIC [1] turn out when `CCC1OC(=O)CC(O)C(C)C(OC2OC(C)C(O)C(N(C)C)C2O)C(CC=O)CC(C)C(OCC2CCC2)C=CC(C)=CC1COC1OC(C)C(O)C(OC)C1OC` (stereo not shown) [Compound 15, 9-dihydro-9-O-cyclobutylmethyldesmycosin] was run?
Answer: 0.39 µg/mL (≈ 0.463 µM)

Question: What about the MIC [2] of the same compound?
Answer: 0.39 µg/mL (≈ 0.463 µM)

Question: What about the MIC [3] of the same compound?
Answer: 0.39 µg/mL (≈ 0.463 µM)

Question: And the MIC [4]?
Answer: 0.78 µg/mL (≈ 0.926 µM)

Question: And the MIC [5]?
Answer: 0.78 µg/mL (≈ 0.926 µM)

Question: What about the MIC [6] of the same compound?
Answer: 50 µg/mL (≈ 59.4 µM)

Question: And the MIC [7]?
Answer: ≤ 0.05 µg/mL

Question: What about the MIC [8] of the same compound?
Answer: 0.2 µg/mL (≈ 0.238 µM)
